What was measured:
Type in all cases: in vivo
[1] = Serum insulin after ingesting 100 g of carbohydrates, immunoassay; conditions: 1.5 g oral one hour prior to 100 g of carbohydrates
Experimental: (§1) 1.5 g of phlorizin as a dry powder in a gelatin capsule was ingested one hour prior to ingesting 100 g of carbohydrates and compared to similar ingestion of carbohydrates without the prior consumption of the phlorizin. Glucose and insulin levels were measured just prior to and 30 and 60 minutes following carbohydrate ingestion and glucose levels were also measured 90 and 120 minutes after carbohydrate ingestion. Glucose levels were established by glucose oxidase reaction using whole blood and measuring the color generated with a hand-held spectrophotometer. Serum insulin was measured using commercially available immunoassay devices and methods.

[2] = Urine glucose after oral ingestion of phlorizin, no food versus in milk; conditions: 1 gm oral; for urine glucose: 85 kg male
[3] = Body weight during oral phlorizin three times a day on an empty stomach; conditions: for Weight after 3 days of phlorizin: 1.5 grams oral three times a day, 90 minutes before eating
Experimental: 1.5 grams phlorizin as a dry powder in a gelatin capsule was ingested orally three times a day, 90 minutes before eating on an empty stomach. Weight measured at the same time each day with a digital electronic scale. Normal dietary conditions were maintained during the time that the phlorizin was ingested.

[4] = Whole blood glucose after ingesting 100 g of carbohydrates, glucose oxidase reaction
Experimental: as §1

For `O=C(CCc1ccc(O)cc1)c1c(O)cc(O)cc1O[C@@H]1O[C@H](CO)[C@@H](O)[C@H](O)[C@H]1O` [phlorizin], which INSULIN ([1]; 0 minutes (just prior to carbohydrate ingestion)) is on record?
The INSULIN was 5 microIU/ml.

And the INSULIN ([1]; 30 minutes after carbohydrate ingestion)?
The INSULIN was 34 microIU/ml.

And the INSULIN ([1]; 60 minutes after carbohydrate ingestion)?
Its INSULIN is 28 microIU/ml.

What about the urine glucose ([2]; in milk, 0 minutes after ingestion) of the same compound?
Its urine glucose is “no food: <50 mg/dl in milk: <50 mg/dl”.

And the urine glucose ([2]; in milk, 90 minutes after ingestion)?
The urine glucose was less than 50 mg/dL.

What about the urine glucose ([2]; in milk, 150 minutes after ingestion) of the same compound?
Its urine glucose is “no food: 50 mg/dl in milk: <50 mg/dl”.

What about the urine glucose ([2]; in milk, 210 minutes after ingestion) of the same compound?
The urine glucose was “no food: <50 mg/dl in milk: <50 mg/dl”.

And the urine glucose ([2]; no food (empty stomach), 0 minutes after ingestion)?
The urine glucose was “no food: <50 mg/dl in milk: <50 mg/dl”.

And the urine glucose ([2]; no food (empty stomach), 90 minutes after ingestion)?
The urine glucose was 500 mg/dL.

What about the urine glucose ([2]; no food (empty stomach), 150 minutes after ingestion) of the same compound?
The urine glucose was “no food: 50 mg/dl in milk: <50 mg/dl”.

And the urine glucose ([2]; no food (empty stomach), 210 minutes after ingestion)?
The urine glucose was “no food: <50 mg/dl in milk: <50 mg/dl”.

What about the “effectiveness as a glucose blocker (urine glucose)” value ([2]; no food versus in milk, conclusion in words) of the same compound?
Its value is “effective as a glucose blocker only if it is ingested without food on an empty stomach”.

What about the “effect on body weight” value ([3]; 1.5 grams oral three times a day for 3 days, conclusion in words) of the same compound?
Its value is “effective in reducing body weight”.

And the “Weight after 3 days of phlorizin” value ([3]; Experiment 1, pre-phlorizin weight 192.2 lbs.)?
The value was 189.4 lbs.

And the “Weight after 3 days of phlorizin” value ([3]; Experiment 2, pre-phlorizin weight 193.2 lbs.)?
The value was 185.4 lbs.

What about the “Weight after 3 days of phlorizin” value ([3]; Experiment 3, pre-phlorizin weight 191.5 lbs.) of the same compound?
Its value is 186.8 lbs.

And the “Weight after 3 days of phlorizin” value ([3]; Experiment 4, pre-phlorizin weight 194.4 lbs.)?
The value was 189.0 lbs.

And the GLUCOSE ([4]; 1.5 g oral one hour prior to 100 g of carbohydrates, 0 minutes (just prior to carbohydrate ingestion))?
Its GLUCOSE is 90 mg/dL.

And the GLUCOSE ([4]; 1.5 g oral one hour prior to 100 g of carbohydrates, 30 minutes after carbohydrate ingestion)?
The GLUCOSE was 146 mg/dL.

And the GLUCOSE ([4]; 1.5 g oral one hour prior to 100 g of carbohydrates, 60 minutes after carbohydrate ingestion)?
Its GLUCOSE is 144 mg/dL.

What about the GLUCOSE ([4]; 1.5 g oral one hour prior to 100 g of carbohydrates, 90 minutes after carbohydrate ingestion) of the same compound?
Its GLUCOSE is 108 mg/dL.

And the GLUCOSE ([4]; 1.5 g oral one hour prior to 100 g of carbohydrates, 120 minutes after carbohydrate ingestion)?
The GLUCOSE was 117 mg/dL.

And the “effect on postprandial rise in glucose and insulin levels” value ([4]; 1.5 g oral one hour prior to 100 g of carbohydrates, conclusion in words)?
Its value is “able to decrease the postpandrial rise in glucose and insulin levels”.

And the “prevention of reactive hypoglycemia” value ([4]; glucose levels at 90 and 120 minutes with and without phlorizin, conclusion in words)?
The value was “effective in preventing reactive hypoglycemia”.
